US10125104B2, “Carotenoid derivative, pharmaceutically acceptable salt thereof, or pharmaceutically acceptable ester or amide thereof” (Asta Pharmaceuticals Co., Ltd., priority 2014, dated 2018)

Key:
[1] = Test for oral absorption: blood plasma concentration of astaxanthin after oral gavage; format: in vivo, Wistar rat; conditions: compared to astaxanthin (free form) and the extract from Haematococcus algae
Method: Test for Oral Absorption in […]
Each of the compound in Example 8, astaxanthin (free form) and an extract from Haematococcus algae (AstaReal L10, manufactured by Fuji Chemical Industries Co., Ltd., oil containing 10% astaxanthin extracted from Haematococcus algae) was diluted with 33% dimethyl sulfoxide, 60% polyethylene glycol and 0.03% aqueous carboxymethyl cellulose solution and prepared to have a concentration of 5 mg/ml as a conversion to astaxanthin free form. The prepared sample was administered to a Wistar rat fasted one night (male, 9 to 13 weeks old, 250 to 300 g of body weight, 2 or 4 animals per group) by oral gavage in an amount of astaxanthin (50 mg) per 1 kg of body weight. Then, the blood was collected at the time points of 3 hours, 6 hours and 24 hours and the blood plasma was isolated. To the obtained blood plasma (0.1 ml), acetone in an amount of 6 folds and hexane in an amount of 50 folds were added, and the solution was stirred well and centrifuged to obtain a hexane layer. The hexane layer was dried under reduced pressure and dissolved in acetone (0.1 ml). The obtained acetone solution (0.05 mL) was analyzed by high performance liquid chromatography (HPLC) under the following conditions and the blood concentration was measured. […]

[2] = tested on: IL-1β mRNA in RAW264.7 cells; assay: Test for anti-inflammation in a cell: IL-1β mRNA by quantitative RT-PCR after LPS; format: cell-based, mouse; conditions: for suppression of IL-1β gene expression (in words): RAW264.7 cells, LPS; for IL-1β Gene expressivity: relative to the control, LPS 1 ng/mL, 2 hours
Method: Test for Anti-Inflammation in a Cell
These cells were cultured for 48 hours in 5% CO2 at 37° C. After the medium replacement, an aqueous solution of the sample was added to the medium and the cell was cultured for 24 hours. The medium was then replaced, LPS (1 ng/mL) was added thereto and the cell was cultured for 2 hours.
Then, the medium was removed and the RAW264.7 cells were washed with physiological phosphate buffer solution (PBS). This operation was performed 3 times. Then, Total RNA was extracted using RNeasy Mini Kit (QIAGEN Inc.), and the production amount of IL-1β mRNA which is an inflammatory cytokine, was measured by a quantitative RT-PCR method using PRISM 7000 (Applied Biosystem).

[3] = tested on: TNF-α; assay: Test for anti-inflammation in rats (LPS intraperitoneally): blood plasma TNF-α by ELISA; format: in vivo, Wistar rats; conditions: for TNF-α concentration in blood plasma: 4 mg/kg LPS i.p., then sample i.p., blood after 9 hours
Method: (§1) Test for Anti-Inflammation in Rats
(§2) Six week-old Wistar rats (purchased from Sankyo Labo Service Corporation, 200-250 g body weight) were acclimatized for 1 week with free access to food under a 12/12-hr light-dark cycle. An aqueous solution of 4 mg/kg LPS (lipopolysaccharide, derived from Escherichia coli and manufactured by Wako Pure Chemical Industries, Ltd.) was injected intraperitoneally and then an aqueous solution of the sample was injected intraperitoneally. After 9 hours, the whole blood was collected from the ventral aorta and centrifuged for 10 minutes at 10,000 rpm, and the blood plasma was collected. The blood plasma TNF-α concentration was measured using a kit for measuring TNF-α (Rat TNF-alpha Quantikine ELISA Kit RTA00, manufactured by R&D Systems Inc.) and the blood plasma IL-1β concentration was measured using a kit for measuring IL-1β (Rat IL-1b/IL1F2 Quantikine ELISA Kit, manufactured by R&D Systems Inc.). The 3 to 4 animals per group were used. The blood plasma TNF-α concentration is shown in Table 46 and FIG. 3 and the blood plasma IL-1β concentration is shown in Table 46 and FIG. 4.

[4] = tested on: IL-1β; assay: Test for anti-inflammation in rats (LPS intraperitoneally): blood plasma IL-1β by ELISA; format: in vivo, Wistar rats; conditions: for IL-1β concentration in blood plasma: 4 mg/kg LPS i.p., then sample i.p., blood after 9 hours
Method: as §1, §2

[5] = Test for confirmation of water solubility (distribution to water/methylene chloride); format: physicochemical
Method: Test for Confirmation of Water Solubility (Distribution to Water/Methylene Chloride)
To each of the samples (1 mg) in Table 43, water (5 mL) and methylene chloride (5 mL) were added and the mixture was shaken, which was called the group of Solution A. A 28% sodium methoxide/methanol solution (463 μL (2.33 mmol)) was dissolved in water (10 mL), and the aqueous solution (1 mL) was collected and dissolved in water (100 mL), which was called Solution B. To each of the group of Solution A, Solution B (1 mL) was added and shaken. The solution was left at room temperature, each of the aqueous layer and of the organic layer were measured by HPLC and the ratio of the compound in the aqueous layer was shown in Table 4.
HPLC conditions were as follows:
chromatograph (HITACHI LaChrom Elite D-2000), column (SHISEIDO CAPCELL PAK C18 (3 μm particle diameter, 4.6 mm×150 mm)), detection temperature (40° C.), detection wavelength (474 nm), flow rate (1.0 mL/min) and mobile phase set up (% A=0.025% TFA/water, % B=0.025% TFA/acetonitrile); 70% A/30% B (at the start), 50% B gradient until 2.5 minutes, 98% B gradient until 4.2 minutes and the ratio (98% B) maintained until 15 minutes. The ratio in the aqueous layer was calculated from the following equation. […]

[6] = digestive absorption; cited from earlier work
[7] = compared to astaxanthin and disodium disuccinate astaxanthin

SMILES	suppression of IL-1β gene expression (in words) [2]	IL-1β Gene expressivity ([2]; sample concentration 5 μM)	TNF-α concentration in blood plasma [3]	IL-1β concentration in blood plasma [4]	IL-1β Gene expressivity ([2]; sample concentration 25 μM)	IL-1β Gene expressivity ([2]; sample concentration 50 μM)	also measured
CC(C=CC=C(C)C=CC1=C(C)C(=O)C(OC(=O)CNC(=O)NCCCC(=O)O)CC1(C)C)=CC=CC=C(C)C=CC=C(C)C=CC1=C(C)C(=O)C(OC(=O)CNC(=O)NCCCC(=O)O)CC1(C)C (stereo not drawn) [Example (8), 4-(3-{4-[18-(4-[3-(3-carboxylpropyl)ureidoacetoxy]-2,6,6-trimethyl-3-oxocyclohexa-1-enyl)-3,7,12,16-tetramethyloctadeca-1,3,5,7,9,11,13,15,17-nonaenyl]-3,5,5-trimethyl-2-oxocyclohexa-3-enyloxycarbonylmethyl}-ureido)butyric acid]							oral absorbability (in words) [1]: higher oral absorbability
CC(C=CC=C(C)C=CC1=C(C)C(=O)C(OC(=O)CNC(=O)NCCCC(=O)O)CC1(C)C)=CC=CC=C(C)C=CC=C(C)C=CC1=C(C)C(=O)C(OC(=O)CNC(=O)NCCCC(=O)O)CC1(C)C.NCCCC[C@H](N)C(=O)O.NCCCC[C@H](N)C(=O)O (stereo not drawn) [Example (23), 4-(3-{4-[18-(4-[3-(3-carboxypropyl)ureidoacetoxy]-2,6,6-trimethyl-3-oxocyclohexa-1-enyl)-3,7,12,16-tetramethyloctadeca-1,3,5,7,9,11,13,15,17-nonaenyl]-3,5,5-trimethyl-2-oxocyclohexa-3-enyloxycarbonylmethyl}-ureido)butyric acid dilysine salt]	suppressed IL-1β gene expression superiorly to astaxanthin	0.88	81.8 ± 83.5 pg/mL	146.3 ± 98.0 pg/mL			suppression of generation of TNF-α (in words) [3, 7]: suppressed generation of TNF-α and of IL-1β more effectively; suppression of generation of IL-1β (in words) [4, 7]: suppressed generation of TNF-α and of IL-1β more effectively
CC(C=CC=C(C)C=CC1=C(C)C(=O)C(OC(=O)CCC(=O)O)CC1(C)C)=CC=CC=C(C)C=CC=C(C)C=CC1=C(C)C(=O)C(OC(=O)CCC(=O)O)CC1(C)C (stereo not drawn) [Astaxanthin disuccinate ester, astaxanthin disuccinic acid ester]							Ratio of aqueous layer ([5]; 1 mg sample in water 5 mL / methylene chloride 5 mL plus dilute sodium methoxide solution, HPLC peak areas, 474 nm): 43.8%
CC(C=CC=C(C)C=CC1=C(C)C(=O)C(O)CC1(C)C)=CC=CC=C(C)C=CC=C(C)C=CC1=C(C)C(=O)C(O)CC1(C)C (stereo not drawn) [Astaxanthin, 6-hydroxy-3-(18-[4-hydroxy-2,6,6-trimethyl-3-oxo-1-cyclohexenyl]-3,7,12,16-tetramethyloctadeca-1,3,5,7,9,11,13,15,17-nonaenyl)-2,4,4-trimethyl-2-cyclohexen-1-one, reference compound]		1.00	112.0 ± 35.6 pg/mL	203.9 ± 165.3 pg/mL	0.96	0.77	water solubility (in words) [5]: extremely low solubility in water; biological availability [6]: around several percent
CC(C=CC=C(C)C=CC1=C(C)C(=O)C(OC(=O)CNC(=O)NCCCC(=O)[O-])CC1(C)C)=CC=CC=C(C)C=CC=C(C)C=CC1=C(C)C(=O)C(OC(=O)CNC(=O)NCCCC(=O)[O-])CC1(C)C.[Na+].[Na+] (stereo not drawn) [Example (22), 4-(3-{4-[18-(4-[3-(3-carboxypropyl)ureidoacetoxy]-2,6,6-trimethyl-3-oxocyclohexa-1-enyl)-3,7,12,16-tetramethyloctadeca-1,3,5,7,9,11,13,15,17-nonaenyl]-3,5,5-trimethyl-2-oxocyclohexa-3-enyloxycarbonylmethyl}-ureido)butyric acid disodium salt]	suppressed IL-1β gene expression superiorly to astaxanthin	0.92			0.66	0.31	
CC1=C(/C=C/C(C)=C/C=C/C(C)=C/C=C/C=C(C)/C=C/C=C(C)/C=C/C2=C(C)C(=O)C(OC(=O)CCC(=O)O)CC2(C)C)C(C)(C)CC(OC(=O)CCC(=O)O)C1=O (stereo not drawn) [Disodium Disuccinate Astaxanthin (DDA), Disodium Disuccinate Astaxanthin, reference compound]			99.6 ± 99.9 pg/mL	311.7 ± 269.1 pg/mL			
